Patent publication US20250296934A1, “AZEPINOINDOLES AND METHODS OF PREPARATION THEREOF” (priority 2022, published 2025)
pEC50: −log10 of the molar value. Like-named read-outs stand apart in the source and are kept apart here.

Assays:
[1] = biological target: T1, 5-HT1A (Homo sapiens, UniProt P08908); experiment: 5-HT receptor activity (Table 3), 5-HT1A; assay type: cell-based
T1 sequence (P08908 1-422): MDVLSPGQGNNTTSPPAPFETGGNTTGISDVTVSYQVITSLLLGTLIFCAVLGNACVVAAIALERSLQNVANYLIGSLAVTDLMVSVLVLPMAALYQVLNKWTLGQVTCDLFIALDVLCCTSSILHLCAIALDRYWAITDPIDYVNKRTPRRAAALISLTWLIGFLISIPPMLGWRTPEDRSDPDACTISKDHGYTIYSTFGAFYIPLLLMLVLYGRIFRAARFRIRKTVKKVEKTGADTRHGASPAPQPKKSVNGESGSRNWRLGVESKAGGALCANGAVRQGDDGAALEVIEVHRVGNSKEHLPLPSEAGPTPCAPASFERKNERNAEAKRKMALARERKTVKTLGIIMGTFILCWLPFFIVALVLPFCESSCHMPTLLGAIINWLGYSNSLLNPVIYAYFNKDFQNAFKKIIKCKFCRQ

[2] = In vitro hepatocyte clearance, rat; assay type: in vitro ADME
Protocol: (§1) Additional experimentation was performed on compounds 1, W5, and A93. Table 6a, 6b and 6c summarize, among other things, the anticipated hepatic clearance of compounds 1, W5 and A93 respectively, in various species, as specified in Table 6a, 6b and 6c and as determined by calculating the in vitro hepatocyte clearance over time and scaling such rate with such species' hepatocyte count and the anticipated liver blood flow rate in such species.

[3] = test system: hepatocyte; experiment: In vitro hepatocyte clearance, rat; assay type: in vitro ADME; conditions: Rat
Protocol: as §1

[4] = biological target: 5-HT1D (Homo sapiens, UniProt P28221); experiment: 5-HT receptor activity (Table 3), 5-HT1D; assay type: cell-based
[5] = biological target: 5-HT7 (Homo sapiens, UniProt P34969); experiment: 5-HT receptor activity (Table 3), 5-HT7; assay type: cell-based
[6] = biological target: T2, 5-HT2B (Homo sapiens, UniProt P41595); experiment: 5-HT2B Gq dissociation BRET functional assay; assay type: cell-based; set-up: expressed in transfected cells; host or cells: HEK293T
Target sequence in this assay (P41595 whole entry): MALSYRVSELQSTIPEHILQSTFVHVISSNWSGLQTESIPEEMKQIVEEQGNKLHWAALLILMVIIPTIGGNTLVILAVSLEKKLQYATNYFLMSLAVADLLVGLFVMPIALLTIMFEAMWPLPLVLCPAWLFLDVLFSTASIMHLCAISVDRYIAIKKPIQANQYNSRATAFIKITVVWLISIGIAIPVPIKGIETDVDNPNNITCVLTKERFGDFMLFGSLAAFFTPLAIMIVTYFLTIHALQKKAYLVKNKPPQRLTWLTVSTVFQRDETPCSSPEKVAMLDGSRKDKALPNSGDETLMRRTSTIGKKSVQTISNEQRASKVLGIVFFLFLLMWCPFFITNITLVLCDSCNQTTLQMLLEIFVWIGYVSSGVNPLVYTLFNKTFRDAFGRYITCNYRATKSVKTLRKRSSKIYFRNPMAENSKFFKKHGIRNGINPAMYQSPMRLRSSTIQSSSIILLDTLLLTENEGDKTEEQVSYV

[7] = test system: mice; experiment: Head Twitch Response (HTR) in mice; assay type: in vivo; conditions: Mus musculus, 1 h, measured over a 60 minute interval
Protocol: Head Twitch Response (HTR) was assessed using a head-mounted neodymium magnet and a magnetometer detection coil, as described in Halberstadt et al., Psychopharmacology (Berl.), 2013, 227 (4): 727-739. Table 8 below summarizes the ED50 in head twitch (as measured over a 60 minute interval) in mice as a result of Compound 1 as compared to psilocybin.

[8] = test system: TA1535
[9] = Plasma PK in rat; assay type: in vivo
Excerpt: Tables 7a and 7b summarize, among other things, the observed plasma PK properties in animals, for Compound 1: […]

[10] = biological target: T2, 5-HT2B; experiment: 5-HT receptor activity (Table 3), 5-HT2B; assay type: cell-based
Target sequence in this assay (P41595 whole entry, species assumed): as the sequence (P41595 whole entry) above

[11] = biological target: 5-HT1E (Homo sapiens, UniProt P28566); experiment: 5-HT receptor activity (Table 3), 5-HT1E; assay type: cell-based
[12] = biological target: 5-HT4 (Homo sapiens, UniProt Q13639); experiment: 5-HT receptor activity (Table 3), 5-HT4; assay type: cell-based
[13] = In vitro hepatocyte clearance, monkey; assay type: in vitro ADME; conditions: Monkey hepatocytes
Protocol: as §1

[14] = test system: hepatocyte; experiment: In vitro hepatocyte clearance, monkey; assay type: in vitro ADME; conditions: Monkey
Protocol: as §1

[15] = biological target: T3, 5-HT2A (Homo sapiens, UniProt P28223); experiment: 5-HT2A Gq dissociation BRET functional assay; assay type: cell-based; set-up: expressed in transfected cells; host or cells: HEK293T
[16] = biological target: T3, 5-HT2A; experiment: 5-HT receptor activity (Table 3), 5-HT2A; assay type: cell-based
[17] = biological target: T4, 5-HT1F (Homo sapiens, UniProt P30939); experiment: 5-HT receptor activity (Table 3), 5-HT1F; assay type: cell-based
T4 sequence (P30939 1-366): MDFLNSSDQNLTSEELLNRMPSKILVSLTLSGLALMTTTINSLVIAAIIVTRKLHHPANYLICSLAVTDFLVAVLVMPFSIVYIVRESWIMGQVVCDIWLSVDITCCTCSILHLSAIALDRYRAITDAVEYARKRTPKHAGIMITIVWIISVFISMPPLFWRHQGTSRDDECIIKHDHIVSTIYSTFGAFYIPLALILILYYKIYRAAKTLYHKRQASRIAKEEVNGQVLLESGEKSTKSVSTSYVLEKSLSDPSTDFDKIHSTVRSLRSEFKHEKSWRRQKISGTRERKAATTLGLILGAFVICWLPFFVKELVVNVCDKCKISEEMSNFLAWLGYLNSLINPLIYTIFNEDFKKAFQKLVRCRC

[18] = normalized to % 5-HT stimulation

T3 sequence (P28223 whole entry): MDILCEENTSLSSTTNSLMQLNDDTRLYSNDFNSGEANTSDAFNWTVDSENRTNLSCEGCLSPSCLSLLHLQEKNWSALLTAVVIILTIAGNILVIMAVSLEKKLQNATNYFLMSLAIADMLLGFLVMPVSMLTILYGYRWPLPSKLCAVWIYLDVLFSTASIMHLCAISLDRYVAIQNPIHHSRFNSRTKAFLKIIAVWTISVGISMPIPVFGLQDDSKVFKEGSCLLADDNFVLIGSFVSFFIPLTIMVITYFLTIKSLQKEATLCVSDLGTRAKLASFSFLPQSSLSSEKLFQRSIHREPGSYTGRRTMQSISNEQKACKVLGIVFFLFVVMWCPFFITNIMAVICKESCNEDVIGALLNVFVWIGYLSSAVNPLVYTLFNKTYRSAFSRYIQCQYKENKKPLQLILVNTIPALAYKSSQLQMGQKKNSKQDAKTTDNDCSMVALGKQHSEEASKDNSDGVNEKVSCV
5-HT1E, sequence (P28566 whole entry, species assumed): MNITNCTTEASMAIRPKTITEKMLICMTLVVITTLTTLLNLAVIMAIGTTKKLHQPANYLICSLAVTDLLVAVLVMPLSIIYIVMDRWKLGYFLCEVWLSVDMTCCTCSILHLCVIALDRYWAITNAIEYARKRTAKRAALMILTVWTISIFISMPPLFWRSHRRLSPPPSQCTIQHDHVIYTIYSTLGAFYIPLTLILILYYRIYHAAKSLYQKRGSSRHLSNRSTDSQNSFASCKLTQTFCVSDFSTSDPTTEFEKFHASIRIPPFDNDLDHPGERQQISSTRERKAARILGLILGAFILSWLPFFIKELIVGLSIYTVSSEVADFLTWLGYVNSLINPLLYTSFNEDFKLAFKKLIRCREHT
5-HT1D, sequence (P28221 whole entry, species assumed): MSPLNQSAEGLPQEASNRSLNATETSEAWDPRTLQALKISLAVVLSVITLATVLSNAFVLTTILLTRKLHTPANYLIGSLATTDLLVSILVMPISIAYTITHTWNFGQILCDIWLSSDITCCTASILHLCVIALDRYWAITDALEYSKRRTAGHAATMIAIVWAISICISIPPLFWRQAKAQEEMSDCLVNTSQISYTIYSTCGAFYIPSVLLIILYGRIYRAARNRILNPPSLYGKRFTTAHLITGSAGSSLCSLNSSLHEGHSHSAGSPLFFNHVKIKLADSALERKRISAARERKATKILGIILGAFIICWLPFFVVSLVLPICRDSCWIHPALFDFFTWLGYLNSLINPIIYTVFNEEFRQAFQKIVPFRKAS
5-HT4, sequence (Q13639 whole entry, species assumed): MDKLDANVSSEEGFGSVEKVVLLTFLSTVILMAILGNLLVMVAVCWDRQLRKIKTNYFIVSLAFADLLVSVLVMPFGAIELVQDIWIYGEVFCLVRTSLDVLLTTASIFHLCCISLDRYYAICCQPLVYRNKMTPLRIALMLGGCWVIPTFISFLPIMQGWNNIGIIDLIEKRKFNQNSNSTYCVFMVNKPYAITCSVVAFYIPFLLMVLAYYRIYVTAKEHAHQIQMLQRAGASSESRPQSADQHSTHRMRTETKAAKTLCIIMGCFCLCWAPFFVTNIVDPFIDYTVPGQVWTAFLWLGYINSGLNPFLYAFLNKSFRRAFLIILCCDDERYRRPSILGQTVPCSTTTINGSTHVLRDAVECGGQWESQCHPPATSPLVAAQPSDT
5-HT7, sequence (P34969 whole entry, species assumed): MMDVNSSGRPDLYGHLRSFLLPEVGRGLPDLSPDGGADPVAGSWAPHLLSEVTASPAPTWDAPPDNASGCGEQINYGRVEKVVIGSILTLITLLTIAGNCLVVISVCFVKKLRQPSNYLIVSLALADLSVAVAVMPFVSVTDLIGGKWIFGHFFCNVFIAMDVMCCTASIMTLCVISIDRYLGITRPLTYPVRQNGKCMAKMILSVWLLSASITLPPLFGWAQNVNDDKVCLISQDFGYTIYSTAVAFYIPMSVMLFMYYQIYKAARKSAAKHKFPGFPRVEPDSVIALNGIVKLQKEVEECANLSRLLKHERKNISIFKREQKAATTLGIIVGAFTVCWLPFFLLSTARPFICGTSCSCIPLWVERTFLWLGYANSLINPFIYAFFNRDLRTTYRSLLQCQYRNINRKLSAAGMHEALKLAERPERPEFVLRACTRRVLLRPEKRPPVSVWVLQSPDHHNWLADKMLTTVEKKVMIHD

Cc1ccc(O)c2c3c([nH]c12)CCNCC3 [Cpd #1 (Pharm-136), 7-Methyl-1,2,3,4,5,6-hexahydroazepino[4,5-b]indol-10-ol] showed a pEC50 [1] of 5.40, an Eff [1] of 73% and a hepatocyte CLint ([2]; Rat hepatocytes) of 5.43 µL/min/1e6 cells. For the same compound, the half-life ([2]; Rat hepatocytes, read-out: In vitro T1/2) was 256 min, the CLint scaled ([2]; rat, hepatocytes, read-out: Scale-up Clint) was 25.4 mL/min/kg and the “Hepatic Extraction Ratio (E)” value [3] was 0.32. The “Predicted hepatic CL” value [3] was 17.41 mL/min/kg, the pEC50 [4] was 6.49 and the Eff [4] was 72%. For the same compound, the EC50 [5] was “Not active”, the pEC50 [6] was 8.46 and the “5-HT2B BRET Eff” value [6, 18] was 52%. For the same compound, the ED50 [7] was 3.6 mg/kg, the “Count (n. of wells)” value ([8]; TA1535 + S9, 1.0E−04M) was 0 n. of wells and the Significance ([8]; TA1535 + S9, 1.0E−04M) was “Negative”. For the same compound, the “Count (n. of wells)” value ([8]; TA1535 + S9, 1.0E−05M) was 0 n. of wells, the Significance ([8]; TA1535 + S9, 1.0E−05M) was “Negative” and the “Count (n. of wells)” value ([8]; TA1535 + S9, 5.0E−05M) was 0 n. of wells. The Significance ([8]; TA1535 + S9, 5.0E−05M) was “Negative”, the “Count (n. of wells)” value ([8]; TA1535 + S9, 5.0E−06M) was 0 n. of wells and the Significance ([8]; TA1535 + S9, 5.0E−06M) was “Negative”. The “Count (n. of wells)” value ([8]; TA1535 − S9, 1.0E−04M) was 0 n. of wells, the Significance ([8]; TA1535 − S9, 1.0E−04M) was “Negative” and the “Count (n. of wells)” value ([8]; TA1535 − S9, 1.0E−05M) was 0 n. of wells. The Significance ([8]; TA1535 − S9, 1.0E−05M) was “Negative”, the “Count (n. of wells)” value ([8]; TA1535 − S9, 5.0E−05M) was 0 n. of wells and the Significance ([8]; TA1535 − S9, 5.0E−05M) was “Negative”. For the same compound, the “Count (n. of wells)” value ([8]; TA1535 − S9, 5.0E−06M) was 0 n. of wells, the Significance ([8]; TA1535 − S9, 5.0E−06M) was “Negative” and the AUC(0-t) ([9]; IP, 10 mg/kg) was 193 ng·h/mL. It also gave a Cl_F ([9]; IP, 10 mg/kg) of 816.02 mL/min/kg, a Vz_F ([9]; IP, 10 mg/kg) of 225480 mL/kg and a half-life ([9]; IP, 10 mg/kg) of 198 min. The AUC(0-t) ([9]; IV, 2.5 mg/kg) was 37.5 ng·h/mL, the half-life ([9]; IV, 2.5 mg/kg) was 236 min and the clearance ([9]; IV, 2.5 mg/kg, read-out: Cltot (converted)) was 1070 mL/min/kg. The Vd ([9]; IV, 2.5 mg/kg, read-out: Vss) was 0.204 L/kg, the pEC50 [10] was 8.38 and the Eff ([10]; 5-HT2B, Table 3) was 50%. For the same compound, the pEC50 [11] was 6.01, the Eff [11] was 94% and the EC50 [12] was “Not active”. The hepatocyte CLint [13] was under 2.71 µL/min/1e6 cells, the half-life ([13]; read-out: In vitro T1/2) was over 512 min and the CLint scaled ([13]; read-out: Scale-up Clint) was under 9.75 mL/min/kg. For the same compound, the “Hepatic Extraction Ratio (E)” value [14] was under 0.18, the “Predicted hepatic CL” value [14] was under 7.97 mL/min/kg and the pEC50 [15] was 9.22. For the same compound, the “5-HT2A BRET Eff” value [15, 18] was 102%, the pEC50 [16] was 9.30 and the Eff ([16]; 5-HT2A, Table 3) was 101%. For the same compound, the pEC50 [17] was 6.34 and the Eff [17] was 56%.
